The text below walks through data of patent US5075311A, “HMG-CoA reductase inhibiting substituted pryido (2,3-d) pyrimidines” (Bayer Aktiengesellschaft, priority 1989, dated 1991).

Molecules are shown by their SMILES.

In this experiment the test system is HMG-CoA reductase (3-hydroxy-3-methyl-glutaryl-coenzyme A reductase). Put plainly: HMG-CoA reductase enzyme activity determination (modified from G. C. Ness et al.), relative in vitro activity versus mevinolin. The experiment is classed as biochemical, rat (male Rico rats, liver). To be noted: from IC50 values, IC50 of reference mevinolin set at 1; 20 min preincubation at 37° C., 60 min incubation. On the procedure: The enzyme activity determination was carried out as modified by G. C. Ness et al., Archives of Biochemistry and Biphysics 197, 493-499 [1979]. Male Rico rats (body weight 300-400 g) were treated for 11 days with altromin powdered feed to which 40 g of cholestyramine/kg of feed had been added. After description, the livers were removed from the animals and placed on ice. The livers were comminuted and homogenized 3 times in 3 volumes of 0.1 m sucrose, 0.05 m KCl, 0.04 m Kx Hy phosphate, 0.03 m ethylenediaminetetraacetic acid, 0.002 m dithiothreitol [SPE] buffer pH 7.2 in a Potter-Elvejem homogenizer. The mixture was then centrifuged at 15,000 g for 15 minutes and the sediment was discarded. […]
After incubating for 60 minutes at 37° C., the batch was centrifuged and 600 μl of the supernatant was applied to a 0.7×4 cm column packed with a 5-chloride 100-200 mesh (anion exchanger). The column was subsequently washed with 2 ml of distilled water and 3 ml of Aquasol were added to runnings plus washing water and counted in an LKB scintillation counter. IC50 values were determined by intrapolation by plotting the percentage inhibition against the concentration of the compound in the test. In order to determine the relative inhibitory potency, the IC50 value of the reference substance mevinolin was set at 1 and compared with the simultaneously determined IC50 value of the test compound.

Turning to `COC(=O)C[C@H](O)C[C@H](O)/C=C/c1c(C(C)C)nc2c(c1-c1ccc(F)cc1)c(=O)[nH]c(=O)n2C` (relative stereo) [Example 16, Methyl erythro-(E)-7-[5-(4-fluorophenyl)-7-isopropyl-1-methyl-2,4-dioxo-1,2,3,4-tetrahydro-pyrido(2,3-d)pyrimidin-6-yl]-3,5-dihydroxy-hept-6-enoate], the “relative activity (mevinolin = 1)” value is on record as 6.

As for `CCCCn1c(=O)[nH]c(=O)c2c(-c3ccc(F)cc3)c(/C=C/[C@@H](O)C[C@@H](O)CC(=O)OC)c(C(C)C)nc21` (relative stereo) [Example 8, Methyl erythro-(E)-7-[1-butyl-5-(4-fluorophenyl)-7-isopropyl-2,4-dioxo-1,2,3,4-terahydro-pyrido(2,3-d)pyrimidin-6-yl]-3,5-dihydroxy-hept-6-enoate], the “relative activity (mevinolin = 1)” value is listed as 2.
